Columns and labels:
[1] = tested on: MIA PaCa-2 cells; experiment: Ki-67/7-AAD IC-FACS cell cycle analysis; format: cell-based, human
Experimental: MIA-PaCa2 cells were seeded in 6-well tissue culture plate (cell density 700 × 10^3/well) and cultured as specified above. Cells were serum-starved for 8 h and then incubated with LIF (10 ng/mL) alone or plus BAR502 (10, 20 µM) or a vehicle for 24 h. The intracellular flow cytometry staining for Ki-67 was performed using the following reagents: Ki-67 Monoclonal Antibody (SolA15), Alexa Fluor™ 488, (eBioscience™, San Diego, California, USA) and 7-AAD to characterize the cell cycle phases G0-G1 and S-G2-M. Before intracellular IC-FACS, staining cells were fixed for 30 min in the dark using IC Fixation buffer (eBioscience™) and then permeabilized using Permeabilization buffer (10X) (eBioscience™). The staining for Annexin V was performed using the Annexin V Antibody (A13199, Thermofisher Scientific, Waltham, MA, USA) to evaluate the apoptosis rate. Briefly, 5 μL of Annexin V Antibody was added to each 100 μL of cell suspension, and cells were incubated the at room temperature for 15 min. Flow cytometry analyses were carried out using a 3-laser standard configuration ATTUNE NxT (LIFe Technologies, Carlsbad, CA, USA). Data were analyzed using FlowJo software (TreeStar) and the gates set using a fluorescence minus-one (FMO) control strategy. […] The channel in which the conjugated Ab is missing is the one for which the fluorescence minus one provides a gating control.

[2] = tested on: MIA PaCa-2 cells; experiment: Real-time PCR and Western blot of EMT markers, CXCR4 and STAT3 phosphorylation; format: cell-based, human
Experimental: The RNA was extracted from cell lines using and Direct-zol™ RNA MiniPrep w/Zymo-Spin™ IIC Columns (Zymo Research, Irvine, CA, USA)., according to the manufacturer’s protocol as described previously ([20]). After purification from genomic DNA by DNase-I treatment (ThermoFisher Scientific, Waltham, MA USA), 2 µg of RNA from each sample was reverse-transcribed using Kit FastGene Scriptase Basic (Nippon Genetics, Mariaweilerstraße, Düren, Germania) in a 20 μL reaction volume. Finally, 50 ng cDNA were amp LIFied in a 20 μL solution containing 200 nM of each primer and 10 μL of SYBR Select Master Mix (ThermoFisher Scientific). All reactions were performed in triplicate, and the thermal cycling conditions were as follows: 3 min at 95°C, followed by 40 cycles of 95°C for 15 s, 56°C for 20 s and 72°C for 30 s, using a Step One Plus machine (Applied Biosystem). The relative mRNA expression was calculated accordingly to the 2^-ΔCt method. Primers used in this study were designed using the PRIMER3 (http://frodo.wi.mit.edu/primer3/) software using the NCBI […]. RT-PCR primers used in this study for human sample and human cell lines were as follow [forward (for) and reverse (rev)]:
MIA-PaCa 2 cells were seeded in 6-well tissue culture plate (cell density 1.5 * 10^6/well) in DMEM complete medium. After serum starving, cells were incubated with LIF (10 ng/mL) alone or plus BAR502 (10 µM) for 10 min. Total lysates were prepared by homogenization of MIA-PaCa2 cells in RIPA buffer containing phosphatase and protease inhibitors. […] Primary Abs were detected with the HRP-labeled secondary Abs. […] Quantitative densitometry analysis was performed using ImageJ software. The degree of STAT3 phosphorylation was calculated as the ratio between the densitometry readings of […] p-STAT3/STAT3.

CC[C@H]1[C@@H](O)C2C3CC[C@H]([C@H](C)CCO)[C@@]3(C)CCC2[C@@]2(C)CC[C@@H](O)C[C@@H]12 (some centres unmarked) [BAR502]
effect on LIF-increased S-G2-M transition ([1]; BAR502 10-20 μM + LIF 10 ng/mL): significantly reversed | effect on LIF-induced increase of Ki-67 positive cells ([1]; LIF 10 ng/mL + BAR502): reversed | effect on STAT3 phosphorylation caused by LIF ([2]; BAR502 10 µM + LIF 10 ng/mL, Western blot): significantly attenuated STAT3 phosphorylation | effect on vimentin expression (RNA and protein) induced by LIF ([2]; BAR502 10-20 μM + LIF 10 ng/mL): reversed the induction of vimentin expression | effect on CXCR4 mRNA expression increased by LIF ([2]; BAR502 + LIF 10 ng/mL, 24 h): reversed the mRNA expression
